Source: US8658668B2, “PI3 kinase/mTOR dual inhibitor” (Eli Lilly and Company, priority 2011, dated 2014)
In brackets after ≈: the same amount, converted by molar mass.

Assay: Solubility determination
Format: physicochemical
Method: Prepare a 2 mg/mL solution of Example 2 in each of the required media by weighing approximately 1 mg of compound into a vial and add the required volume (i.e. 0.5 mL) of the corresponding media into each vial. Place capped vial on a rotating mixture over night (˜16 hours) at ambient conditions, then filter using 0.22 um Ultrafree-MC filters (Millipore™) and measure pH of filtrate (Orion 720A pH meter). Prepare the sample for HPLC analysis by transferring 100 μL of the filtrate into a HPLC vial and add 900 μL of 50% acetonitrile/water solution.

## CO[C@@H](C)Cn1c(=O)n(C)c2cnc3ccc(-c4cncc(C(C)(C)O)c4)cc3c21 [Example 2, 8-[5-(1-Hydroxy-1-methylethyl)pyridin-3-yl]-1-[(2S)-2-methoxypropyl]-3-methyl-1,3-dihydro-2H-imidazo[4,5-c]quinolin-2-one, Form I]
50 mM phosphate buffer at pH 2, average filtrate pH 2.31
  Solubility, Average mg/mL: ≧2.0 mg/mL
50 mM phosphate buffer at pH 4, average filtrate pH 4.92
  Solubility, Average mg/mL: 1.0524 mg/mL (≈ 2590 µM)
50 mM phosphate buffer at pH 6, average filtrate pH 6.14
  Solubility, Average mg/mL: 0.7178 mg/mL (≈ 1770 µM)
50 mM phosphate buffer at pH 8, average filtrate pH 8.00
  Solubility, Average mg/mL: 0.6352 mg/mL (≈ 1560 µM)
0.1N HCl, average filtrate pH 1.15, ~16 hours, ambient
  Solubility, Average mg/mL: ≧2.0 mg/mL
Fast, simulated intestinal fluid fasted state, average filtrate pH 6.45
  Solubility, Average mg/mL: 1.0203 mg/mL (≈ 2510 µM)
Fed, simulated intestinal fluid fed state, average filtrate pH 5.09
  Solubility, Average mg/mL: ≧2.0 mg/mL
SGF, simulated gastric fluid, average filtrate pH 3.52
  Solubility, Average mg/mL: 1.7529 mg/mL (≈ 4310 µM)
